In the data set the target is T1, CatA (Homo sapiens, UniProt P10619).
T1 sequence (P10619 29-326 limits assumed): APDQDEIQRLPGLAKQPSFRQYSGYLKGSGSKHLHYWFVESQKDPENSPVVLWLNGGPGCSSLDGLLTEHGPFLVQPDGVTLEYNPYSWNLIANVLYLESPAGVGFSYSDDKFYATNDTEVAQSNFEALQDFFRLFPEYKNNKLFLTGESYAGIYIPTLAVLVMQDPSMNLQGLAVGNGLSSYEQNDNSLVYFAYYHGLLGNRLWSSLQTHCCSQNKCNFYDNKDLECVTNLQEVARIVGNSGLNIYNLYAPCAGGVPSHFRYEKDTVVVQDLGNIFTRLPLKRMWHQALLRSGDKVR
T1 sequence (P10619 327-480 limits assumed): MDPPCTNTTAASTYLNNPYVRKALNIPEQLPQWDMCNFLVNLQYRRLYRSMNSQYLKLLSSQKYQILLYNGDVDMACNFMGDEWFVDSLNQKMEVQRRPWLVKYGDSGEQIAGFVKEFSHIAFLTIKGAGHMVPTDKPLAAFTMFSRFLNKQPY
In words: CatA-catalyzed hydrolysis of RDV and control (substrate disappearance, LC-MS). The protocol: The catalytic activity of carboxylesterase 1b (CES1b), carboxylesterase 1c (CES1c), CES2, and CatA toward RDV hydrolysis was measured using protein-enriched subcellular fraction (CES isozymes) or recombinant proteins (CatA). The reaction rates were determined by monitoring the disappearance of RDV using a liquid chromatography-mass spectrometry (LC-MS) method.
Following protein precipitation and centrifugation, 150 μl of supernatant was dried down and reconstituted with 250 μl water. […] Three experiments were conducted with two replicates in each experiment, and data are reported as averages from the three experiments.
In all studies apart from those with CES1 and CatA with enzyme inhibitors, samples (10-μl aliquots) were injected with a Thermo Scientific autosampler. The LC instrumentation consisted of a Thermo Scientific Dionex UltiMate 3000 RS pump, and the LC column was a Waters Acquity UPLC BEH C18 (1.7 μm particle size, 2.1 by 50 mm). Mobile phases A and B were water 99.9% (vol/vol) containing 0.1% (vol/vol) formic acid, and acetonitrile 99.9% (vol/vol) containing 0.1% (vol/vol) formic acid, respectively, pumped at 0.2 ml/minute. Elution was achieved by a series of linear gradients over 2.33 min followed by reequilibration for 2.57 min. The MS instrument was a Thermo Q Exactive Hybrid Quadrupole-Orbitrap operating in positive or negative ionization mode as appropriate. This was calibrated on a weekly basis, and data were processed with GMSU 8.4.66 software by Gubbs Inc. (Alpharetta, GA). Mass tolerance of 5 ppm was used.

As to `CCC(CC)COC(=O)[C@H](C)N[P@](=O)(OC[C@H]1O[C@@](C#N)(c2ccc3c(N)ncnn23)[C@H](O)[C@@H]1O)Oc1ccccc1` [RDV, Remdesivir], the “Activity for amidate ester cleavage, CatA” value (1 μM substrate, 5 nM CatA, pH 6.5, 37°C) is 74 ± 32 nmol/min/mg. Besides, where the note is “fold lower than hydrolysis rate of TAF”, the “CatA hydrolysis rate relative to TAF” value was found to be 3.4 fold. Besides, where the note is “human, recombinant CatA (activated with CatL), pH 6.5”, the half-life – broadly, the time in which the quantity being followed falls by half – at 1 μM is 43 min.
